Measurements taken from US5759835A, “Bacterial nitric oxide synthase” (priority 1995, dated 1998).
“Also recorded” adds a separate entry of the source.

Assays:
NOSNoc [1] = assay: NOSNoc activity, oxyhemoglobin spectrophotometric assay (kinetics and inhibition); assay type: biochemical, Nocardia species (NRRL 5646); conditions: for Vmax / Km: compound as substrate of NOSNoc; for Ki: model of competitive inhibition; for Mode of inhibition of NO synthesis by NOSNoc: with either L-arginine or L-NOHA as substrate
Procedure: Assays for NOS activity were carried out using a Shimadzu 160 spectrophotometer by observing the increase in absorbance at 401 nm at 25° C. A typical sample assay contained 50 mM potassium phosphate buffer (pH 7.5), 4 μM oxyHb, 100 μM L-arginine of L-NOHA (for kinetic experiments), 100 μM NADPH, 1 mM CaCl2, 10 μM FAD, 10 μM FMN, 80 μM H4 B, 150 μM DTT and 0.1-2 μg enzyme in a final volume of 1 ml. For assays, the reference cuvette contained all components except for L-arginine or L-NOHA. All assays were initiated by adding enzyme.

NOSNoc [2] = assay: Stoichiometry of product formation and cofactor utilization by NOSNoc; assay type: biochemical, Nocardia species (NRRL 5646); conditions: compound as substrate for NOSNoc
Procedure: NOS activity was also determined by measuring the decrease in absorbance at 340 nm as NADPH was consumed during the conversation of L-arginine to L-citrulline by NOS. Furfine, E. S., et al. (1993) Biochemistry 32, pp. 8512-8517.
Bredt, D. S., and Snyder, S. H. (1989) Proc. Natl. Acad. Sci. U.S.A. 86, pp. 9030-9033. Reaction samples (50 μl, 100 μM arginine and 1 μCi radioactivity)in 2 ml of stop buffer (20 mM HEPES and 2 mM EDTA, pH 5.5) were applied to a fresh 1-ml Dowex AG50W-X8 (Na+ form, 100-200 mesh) column. Labeled citrulline was eluted with 2 ml of distilled water, and the eluates were collected. Aliquots of 0.1 ml of eluate were dissolved in 5 ml of Budget Solve cocktail in 10 ml scintillation vials, and radioactivity was measured in a Beckman LS 3801 liquid scintillation system.
Nitrite was measured spectrophotometrically using Griess reagent. Green, L. C., et al. (1982) Anal. Biochem. 126, pp. 131-138. […] After standing for 15-30 minutes at room temperature, the absorbance at 540 nm was measured. Nitrite concentrations were estimated by comparison with a standard curve at the range of 0-1.0 μg/ml prepared with standard sodium nitrite in water.
Oxygen concentrations were calculated based on the deflection of the chart recorder versus 206 μM oxygen-total oxygen content in the reaction vessel. Koppenol, W. H. (1985) Adv. Free Radical Biol. Med. 1, 91-131.
Stoichiometric determinations of oxygen consumed, NADPH oxidized, NO and citrulline formed, and kinetic experiments were carried out to confirm that L-NOHA is an intermediate in the biosynthesis of nitric oxide from L-arginine.

[3] = EZ-FIT fit, table values are the mean S.D. of three determinations
[4] = Table III, EZ-FIT fit, mean S.D. of three determinations
[5] = L-Arginine as substrate, mean S.D. of three determinations
[6] = N^G -Hydroxy-L-arginine as substrate, mean S.D. of three determinations

SMILES | Vmax (NOSNoc [1]) [nmol/min/mg protein] | Km (NOSNoc [1]; [3]) [µM] | Vmax (NOSNoc [1]; [4]) [nmole/min/mg protein] | Citrulline formation (NOSNoc [2]) [nmol] | NADPH consump (NOSNoc [2]) [nmol] | Nitrile formation (NOSNoc [2]) [nmol] | Oxygen consump (NOSNoc [2]) [nmol] | Km (NOSNoc [1]; value as printed in the discussion) [µM] | Ki (NOSNoc [1]; [5]) [µM] | Ki (NOSNoc [1]; [6]) [µM] | Mode of inhibition of NO synthesis by NOSNoc (NOSNoc [1]; listed as L-NMA) | Mode of inhibition of NO synthesis by NOSNoc (NOSNoc [1]; listed as L-NNA)
N=C(N)NCCC[C@H](N)C(=O)O [L-Arginine] | 607 | 5.7 | 274 ± 13 | 4.21 ± 0.17 | 8.77 ± 0.32 | 4.63 ± 0.28 | 8.89 ± 0.33 |  |  |  |  | 
N=C(NO)NCCC[C@H](N)C(=O)O [N^G -Hydroxy-L-arginine] | 549 | 15.8 | 303 ± 15 | 4.54 ± 0.21 | 4.38 ± 0.24 | 4.57 ± 0.20 | 4.46 ± 0.16 | 15.8 |  |  |  | 
CNC(=N)NCCC[C@H](N)C(=O)O [N^G -methyl-L-arginine] |  |  |  |  |  |  |  |  | 6.2 ± 0.4 | 21.4 ± 1.2 | typical competitive inhibition; also recorded: reversible competitive inhibitors | 
N=C(NCCC[C@H](N)C(=O)O)N[N+](=O)[O-] [N^G -nitro-L-arginine] |  |  |  |  |  |  |  |  | 9.8 ± 0.6 | 21.4 ± 1.2 |  | typical competitive inhibition; also recorded: reversible competitive inhibitors
